Assay: xn = mol fraction of the nth substance listed
Conditions: 100 kPa, Liquid; for viscosity: Falling or rolling sphere viscometry; for mass density: Vibrating tube method

CC(=O)[O-].CC[N+]1(C)CCCC1 [1-ethyl-1-methylpyrrolidinium acetate] + O
Conditions | mass density [kg/m3] | viscosity [mPa·s]
298.15 K, x1 = 0.1008 | 1046.6 | 6.95
298.15 K, x1 = 0.2083 | 1066.7 | 16.9
298.15 K, x1 = 0.3171 | 1070.7 | 29
298.15 K, x1 = 0.4126 | 1070.8 | 41.1
298.15 K, x1 = 0.481 | 1070.2 | 50.9
298.15 K, x1 = 0.5857 | 1069.2 | 69.3
298.15 K, x1 = 0.6728 | 1068.1 | 88.3
298.15 K, x1 = 0.766 | 1066.9 | 116
298.15 K, x1 = 0.8963 | 1065.4 | 173
303.15 K, x1 = 0.1008 | 1043.6 | 5.96
303.15 K, x1 = 0.2083 | 1063.6 | 14.2
303.15 K, x1 = 0.3171 | 1067.6 | 24.2
303.15 K, x1 = 0.4126 | 1067.8 | 34.5
303.15 K, x1 = 0.481 | 1067.2 | 42.8
303.15 K, x1 = 0.5857 | 1066.3 | 57.2
303.15 K, x1 = 0.6728 | 1065.3 | 71.4
303.15 K, x1 = 0.766 | 1064 | 91.3
303.15 K, x1 = 0.8963 | 1062.5 | 134
308.15 K, x1 = 0.1008 | 1040.7 | 5.32
308.15 K, x1 = 0.2083 | 1060.3 | 11.9
308.15 K, x1 = 0.3171 | 1064.5 | 19.7
308.15 K, x1 = 0.4126 | 1064.8 | 28
308.15 K, x1 = 0.481 | 1064.2 | 35.1
308.15 K, x1 = 0.5857 | 1063.1 | 46.7
308.15 K, x1 = 0.6728 | 1062.2 | 57.6
308.15 K, x1 = 0.766 | 1060.7 | 74.2
308.15 K, x1 = 0.8963 | 1059.4 | 107
313.15 K, x1 = 0.1008 | 1037.7 | 4.77
313.15 K, x1 = 0.2083 | 1057.1 | 10.6
313.15 K, x1 = 0.3171 | 1061.4 | 16.9
313.15 K, x1 = 0.4126 | 1061.8 | 23.5
313.15 K, x1 = 0.481 | 1061.3 | 28.9
313.15 K, x1 = 0.5857 | 1060.4 | 38.7
313.15 K, x1 = 0.6728 | 1059.4 | 48.5
313.15 K, x1 = 0.766 | 1057.9 | 62.8
313.15 K, x1 = 0.8963 | 1056.6 | 88.5
318.15 K, x1 = 0.1008 | 1034.6 | 4.3
318.15 K, x1 = 0.2083 | 1053.8 | 9.09
318.15 K, x1 = 0.3171 | 1058.2 | 14
318.15 K, x1 = 0.4126 | 1058.7 | 19.7
318.15 K, x1 = 0.481 | 1058.3 | 23.6
318.15 K, x1 = 0.5857 | 1057.5 | 30.3
318.15 K, x1 = 0.6728 | 1056.6 | 38.4
318.15 K, x1 = 0.766 | 1055 | 51.4
318.15 K, x1 = 0.8963 | 1053.7 | 70.8
323.15 K, x1 = 0.1008 | 1031.5 | 3.87
323.15 K, x1 = 0.2083 | 1050.5 | 7.91
323.15 K, x1 = 0.3171 | 1055.1 | 11.6
323.15 K, x1 = 0.4126 | 1055.7 | 16
323.15 K, x1 = 0.481 | 1055.3 | 19.8
323.15 K, x1 = 0.5857 | 1054.5 | 26.2
323.15 K, x1 = 0.6728 | 1053.6 | 32.7
323.15 K, x1 = 0.766 | 1052.2 | 42.5
323.15 K, x1 = 0.8963 | 1050.9 | 58
328.15 K, x1 = 0.1008 | 1028.3 | 3.523
328.15 K, x1 = 0.2083 | 1047.2 | 6.81
328.15 K, x1 = 0.3171 | 1051.9 | 10
328.15 K, x1 = 0.4126 | 1052.6 | 13.5
328.15 K, x1 = 0.481 | 1052.3 | 15.8
328.15 K, x1 = 0.5857 | 1051.6 | 21.2
328.15 K, x1 = 0.6728 | 1050.7 | 28
328.15 K, x1 = 0.766 | 1049.3 | 35.2
328.15 K, x1 = 0.8963 | 1048 | 48
333.15 K, x1 = 0.1008 | 1025.1 | 3.21
333.15 K, x1 = 0.2083 | 1043.8 | 6.14
333.15 K, x1 = 0.3171 | 1048.7 | 8.67
333.15 K, x1 = 0.4126 | 1049.5 | 11.5
333.15 K, x1 = 0.481 | 1049.3 | 13.5
333.15 K, x1 = 0.5857 | 1048.5 | 18.1
333.15 K, x1 = 0.6728 | 1047.7 | 23.2
333.15 K, x1 = 0.766 | 1046.2 | 29.1
333.15 K, x1 = 0.8963 | 1045 | 39.5
338.15 K, x1 = 0.1008 | 1021.8 | 2.94
338.15 K, x1 = 0.2083 | 1040.5 | 5.49
338.15 K, x1 = 0.3171 | 1045.5 | 7.52
338.15 K, x1 = 0.4126 | 1046.4 | 9.88
338.15 K, x1 = 0.481 | 1046.2 | 11.6
338.15 K, x1 = 0.5857 | 1045.6 | 15.4
338.15 K, x1 = 0.6728 | 1044.9 | 19.8
338.15 K, x1 = 0.766 | 1043.5 | 24.6
338.15 K, x1 = 0.8963 | 1042.3 | 32.6
343.15 K, x1 = 0.1008 | 1018.5 | 2.65
343.15 K, x1 = 0.2083 | 1037.1 | 4.78
343.15 K, x1 = 0.3171 | 1042.2 | 6.72
343.15 K, x1 = 0.4126 | 1043.3 | 8.58
343.15 K, x1 = 0.481 | 1043.2 | 10.1
343.15 K, x1 = 0.5857 | 1042.6 | 13.1
343.15 K, x1 = 0.6728 | 1041.9 | 16.9
343.15 K, x1 = 0.766 | 1040.5 | 20.9
343.15 K, x1 = 0.8963 | 1039.3 | 27.2
348.15 K, x1 = 0.1008 | 1015.2 | 2.46
348.15 K, x1 = 0.2083 | 1033.6 | 4.38
348.15 K, x1 = 0.3171 | 1039 | 5.79
348.15 K, x1 = 0.4126 | 1040.1 | 7.52
348.15 K, x1 = 0.481 | 1040.1 | 8.82
348.15 K, x1 = 0.5857 | 1039.7 | 11.4
348.15 K, x1 = 0.6728 | 1039 | 14.6
348.15 K, x1 = 0.766 | 1037.6 | 17.3
348.15 K, x1 = 0.8963 | 1036.7 | 22.4

Source: the NIST ThermoML archive (doi:10.1016/j.jct.2016.10.034)
